Data set [1] deals with mildew of wheat (Blumeria graminis forma specialis tritici). The data set can be described thus: activity against powdery mildew of wheat (protective spray test on potted wheat seedlings). Format: in vivo. The settings on record: wheat seedlings cultivar Kanzler, sprayed 24 h before inoculation, assessed visually after 7 days, untreated plants 90% infected. Here is the method: The active compounds were prepared separately or jointly as a 10% strength emulsion in a mixture of 70% by weight of cyclohexanone, 20% by weight of Nekanil® LN (Lutensol® AP6, wetting agent having emulsifying and dispersing action based on ethoxylated alkylphenols) and 10% by weight of Wettol® EM (nonionic emulsifier based on ethoxylated castor oil) and diluted with water to the desired concentration.
Use example—activity against powdery mildew of wheat
Leaves of potted wheat seedlings of the cultivar “Kanzler” were sprayed to runoff point with an aqueous preparation of active compound which had been prepared from a stock solution of 10% of active compound, 63% of cyclohexanone and 27% of emulsifier. 24 hours after the spray coating had dried on, the leaves were dusted with spores of mildew of wheat (Blumeria graminis forma specialis tritici). The test plants were then placed in a greenhouse at 20-24° C. and 60 to 90% relative atmospheric humidity.
After 7 days, the extent of the mildew development was determined visually in % infection of the entire leaf area.

Experimental findings from patent publication US6576595B1, “Xanthone derivatives, processes for their preparation and their use for controlling harmful fungi, and compositions comprising these derivatives” (BASF Aktiengesellschaft, priority 2001, dated 2003) are described below.

Each structure is given as a SMILES string.

Turning to `COc1cc(C)c2c(=O)c3c(OC)cccc3oc2c1OC`, the melting point worked out at 158 °C.

In turn, `COc1cc(C)c2c(=O)c3c(oc2c1OC)C(Br)=CCC3(C)OC` (centres unmarked) came in with a melting point of 162 °C.

Turning to `COc1cc(C)c2c(=O)c3c(C)c(Cl)ccc3oc2c1OC` [I-5, 7-chloro-3,4-dimethoxy-1,8-dimethylxanthen-9-one], the melting point was 180 °C. In addition, the “extent of the mildew development in % infection of the entire leaf area” value in data set [1] (4 ppm active compound) is “not more than 3%”. Further, in data set [1] (16 ppm active compound), the “extent of the mildew development in % infection of the entire leaf area” value is given as “not more than 3%”.

One may read the melting point as the temperature, or range, at which the solid turns liquid.
